Measured values as given in ChEMBL document CHEMBL5050844 (2019).

Assays:
[1] = Induction of anti-CD3/CD28 antibodies-stimulated human T cell activation at 0.3 uM assessed fold increase in CD25 expression measured by ELISA assay; format: functional, T cell line
[2] = Induction of activation of human CD56+ CD3- NK cells co-cultured with human K562 cells in 1:1 ratio and assessed as increase in TNF-alpha secretion at 10 uM measured by ELISA assay; format: functional, Natural killer cell
[3] = Induction of activation of human CD56+ CD3- NK cells co-cultured with human K562 cells in 1:1 ratio and assessed as increase in TNF-alpha secretion at 1 uM measured by ELISA assay; format: functional, Natural killer cell
[4] = Induction of anti-CD3/CD28 antibodies-stimulated human T cell activation at 0.3 uM assessed fold increase in IL-2 secretion measured by ELISA assay; format: functional, T cell line
[5] = Induction of anti-CD3 antibodies-stimulated human T cell activation at 8 uM assessed fold increase in CD25 expression measured by ELISA assay; format: functional, T cell line; also: reference of the scale not given here
[6] = Induction of activation of human CD56+ CD3- NK cells co-cultured with human K562 cells in 1:1 ratio and assessed as increase in IFN-gamma secretion at 10 uM measured by ELISA assay; format: functional, Natural killer cell
[7] = Induction of activation of human CD56+ CD3- NK cells co-cultured with human K562 cells in 1:1 ratio and assessed as increase in IFN-gamma secretion at 1 uM measured by ELISA assay; format: functional, Natural killer cell
[8] = Induction of anti-CD3/CD28 antibodies-stimulated human T cell activation at 4 uM assessed fold increase in CD25 expression measured by ELISA assay; format: functional, T cell line
[9] = Induction of anti-CD3 antibodies-stimulated human T cell activation at 8 uM assessed fold increase in IL-2 secretion measured by ELISA assay; format: functional, T cell line; also: reference of the scale not given here
[10] = Induction of activation of human CD56+ CD3- NK cells co-cultured with human K562 cells in 5:1 ratio and assessed as increase in TNF-alpha secretion at 1 uM measured by ELISA assay; format: functional, Natural killer cell
[11] = Induction of activation of human CD56+ CD3- NK cells co-cultured with human K562 cells in 5:1 ratio and assessed as increase in TNF-alpha secretion at 10 uM measured by ELISA assay; format: functional, Natural killer cell
[12] = Induction of anti-CD3/CD28 antibodies-stimulated human T cell activation at 4 uM assessed fold increase in IL-2 secretion measured by ELISA assay; format: functional, T cell line
[13] = Induction of activation of human CD56+ CD3- NK cells co-cultured with human K562 cells in 1:1 ratio and assessed as increase in MIP1beta secretion at 1 uM measured by ELISA assay; format: functional, Natural killer cell
[14] = Induction of anti-CD3/CD28 antibodies-stimulated human T cell activation at 1 uM assessed fold increase in CD25 expression measured by ELISA assay; format: functional, T cell line
[15] = Induction of anti-CD3 antibodies-stimulated human T cell activation at 1 uM assessed fold increase in IL-2 secretion measured by ELISA assay; format: functional, T cell line; also: reference of the scale not given here
[16] = Induction of activation of human CD56+ CD3- NK cells co-cultured with human K562 cells in 5:1 ratio and assessed as increase in MIP1beta secretion at 10 uM measured by ELISA assay; format: functional, Natural killer cell
[17] = Induction of anti-CD3 antibodies-stimulated human T cell activation at 1 uM assessed fold increase in CD25 expression measured by ELISA assay; format: functional, T cell line; also: reference of the scale not given here
[18] = Induction of activation of human CD56+ CD3- NK cells co-cultured with human K562 cells in 5:1 ratio and assessed as increase in IFN-gamma secretion at 10 uM measured by ELISA assay; format: functional, Natural killer cell
[19] = Induction of activation of human CD56+ CD3- NK cells co-cultured with human K562 cells in 5:1 ratio and assessed as increase in IFN-gamma secretion at 1 uM measured by ELISA assay; format: functional, Natural killer cell
[20] = Induction of activation of human CD56+ CD3- NK cells co-cultured with human K562 cells in 5:1 ratio and assessed as increase in MIP1beta secretion at 1 uM measured by ELISA assay; format: functional, Natural killer cell
[21] = Induction of activation of human CD56+ CD3- NK cells co-cultured with human K562 cells in 1:1 ratio and assessed as increase in MIP1beta secretion at 10 uM measured by ELISA assay; format: functional, Natural killer cell
[22] = Induction of anti-CD3/CD28 antibodies-stimulated human T cell activation at 1 uM assessed fold increase in IL-2 secretion measured by ELISA assay; format: functional, T cell line
[23] = molecular target: T1, E3 ubiquitin-protein ligase CBL-B (Homo sapiens, UniProt Q13191); assay: Inhibition of N-terminal Avi-tagged human CBL-B (36 to 427 residues) incubated with 30 nM Src kinase for 1.5 hrs followed by incubation with fluorescently labeled UbcH5B-Ub for 1 hr and measured by TR-FRET assay
T1 sequence (Q13191 whole entry, the tested form may be a part): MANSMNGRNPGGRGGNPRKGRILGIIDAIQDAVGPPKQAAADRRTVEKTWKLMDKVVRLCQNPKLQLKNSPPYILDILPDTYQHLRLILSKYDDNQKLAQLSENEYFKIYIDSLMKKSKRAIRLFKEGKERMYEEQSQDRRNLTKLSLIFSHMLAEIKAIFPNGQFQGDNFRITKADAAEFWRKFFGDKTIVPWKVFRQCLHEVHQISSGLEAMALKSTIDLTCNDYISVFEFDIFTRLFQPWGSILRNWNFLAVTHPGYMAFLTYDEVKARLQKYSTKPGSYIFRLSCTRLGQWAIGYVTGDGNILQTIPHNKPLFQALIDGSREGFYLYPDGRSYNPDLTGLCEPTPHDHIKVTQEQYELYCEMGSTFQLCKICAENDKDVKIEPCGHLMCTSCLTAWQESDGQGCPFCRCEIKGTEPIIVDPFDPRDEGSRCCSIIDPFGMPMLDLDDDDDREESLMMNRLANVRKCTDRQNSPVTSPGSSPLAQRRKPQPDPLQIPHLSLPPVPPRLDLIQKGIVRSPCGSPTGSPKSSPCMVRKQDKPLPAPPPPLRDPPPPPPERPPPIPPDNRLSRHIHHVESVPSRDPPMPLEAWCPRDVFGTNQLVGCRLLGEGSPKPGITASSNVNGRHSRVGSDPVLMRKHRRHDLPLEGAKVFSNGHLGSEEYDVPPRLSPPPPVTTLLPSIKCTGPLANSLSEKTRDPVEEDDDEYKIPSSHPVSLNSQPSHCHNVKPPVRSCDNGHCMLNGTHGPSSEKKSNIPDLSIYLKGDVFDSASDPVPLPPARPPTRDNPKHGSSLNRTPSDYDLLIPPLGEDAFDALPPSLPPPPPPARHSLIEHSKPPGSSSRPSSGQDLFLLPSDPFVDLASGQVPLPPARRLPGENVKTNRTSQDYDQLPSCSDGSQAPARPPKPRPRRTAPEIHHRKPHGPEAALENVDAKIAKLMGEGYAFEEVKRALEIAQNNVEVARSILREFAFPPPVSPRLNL

[24] = molecular target: T1, E3 ubiquitin-protein ligase CBL-B; assay: Binding affinity towards N-terminal biotinylated Avi-tagged human CBL-B (36 to 427 residues) measured by surface plasmon resonance assay
[25] = Induction of anti-CD3 antibodies-stimulated human CD4+ T cell activation in immunocompetent mouse assessed fold increase in CD25 expression at 135 mg/kg, po administered twice a day; format: functional; also: reference of the scale not given here
[26] = Induction of anti-CD3 antibodies-stimulated human CD4+ T cell activation in immunocompetent mouse assessed fold increase in CD25 expression at 90 mg/kg, po administered twice a day; format: functional; also: reference of the scale not given here
[27] = molecular target: T1, E3 ubiquitin-protein ligase CBL-B; assay: Inhibition of N-terminal Avi-tagged human CBL-B (36 to 427 residues) incubated with 60 nM Src kinase for 1.5 hrs followed by incubation with fluorescently labeled UbcH5B-Ub for 1 hr and measured by TR-FRET assay; format: single protein
[28] = Induction of anti-CD3 antibodies-stimulated human CD8+ T cell activation in immunocompetent mouse assessed fold increase in CD25 expression at 135 mg/kg, po administered twice a day; format: functional; also: reference of the scale not given here
[29] = Induction of anti-CD3 antibodies-stimulated human CD8+ T cell activation in immunocompetent mouse assessed fold increase in CD25 expression at 180 mg/kg, po administered twice a day; format: functional; also: reference of the scale not given here
[30] = Induction of anti-CD3 antibodies-stimulated human CD8+ T cell activation in immunocompetent mouse assessed fold increase in CD25 expression at 90 mg/kg, po administered twice a day; format: functional; also: reference of the scale not given here
[31] = Induction of anti-CD3 antibodies-stimulated human CD4+ T cell activation in immunocompetent mouse assessed fold increase in CD25 expression at 180 mg/kg, po administered twice a day; format: functional; also: reference of the scale not given here
[32] = Induction of anti-CD3 antibodies-stimulated human CD8+ T cell activation in immunocompetent mouse assessed fold increase in CD25 expression at 90 mg/kg, ip administered thrice a day; format: functional; also: reference of the scale not given here

IC50 [23] [µM] | Kd [24] [µM] | Structure (SMILES) | fold change (FC) [1] | fold change (FC) [4] | fold change (FC) [14] | fold change (FC) [15] | fold change (FC) [17] | fold change (FC) [22] | fold change (FC) [25] | fold change (FC) [28] | fold change (FC) [29] | fold change (FC) [30] | fold change (FC) [31] | further results
 |  | Cn1cnnc1C(F)(F)[C@](C)(F)c1cccc(N2Cc3c(cccc3C(F)(F)F)C2=O)c1 | 1.01 | 1.01 | 1.01 | 0.151 | 0.601 | 1.01 |  |  |  |  |  | fold change (FC) [2]: 1.01; fold change (FC) [3]: <=1; fold change (FC) [5]: >=1.001; fold change (FC) [6]: 2.01; fold change (FC) [7]: 1.01; fold change (FC) [8]: 1.01; fold change (FC) [9]: >=0.201; fold change (FC) [10]: <=1; fold change (FC) [11]: <=1; fold change (FC) [12]: 2.51; fold change (FC) [13]: <=1; fold change (FC) [16]: <=1; fold change (FC) [18]: 1.01; fold change (FC) [19]: <=1; fold change (FC) [20]: <=1; fold change (FC) [21]: <=1
≥ 3 | > 10 | CC(Sc1nncn1C)c1cccc(NC(=O)c2ccccn2)c1 (stereo not given) |  |  |  |  |  |  |  |  |  |  |  | 
 | < 0.1 | Cn1cnnc1CC1(c2cccc(N3Cc4c(cc(CN5CCC(C)(F)CC5)cc4C(F)(F)F)C3=O)c2)COC1 | 1.31 | >=7.5 | 1.31 | >=0.201 | >=1.001 | >=7.5 | 1 | <1 | <1 | 1 | 1 | fold change (FC) [26]: 1; IC50 [27]: < 0.1 µM; fold change (FC) [32]: 1
 |  | C[C@@H](Cc1nncn1C)c1cccc(N2Cc3c(cccc3C(F)(F)F)C2=O)c1 |  |  |  |  |  |  | <1 | <1 | <1 | <1 | <1 | 
> 10 | > 10 | COc1cccc(C(=O)Nc2cccc(C(C)Sc3nncn3C)c2)c1 (stereo not given) |  |  |  |  |  |  |  |  |  |  |  | 
 |  | Cn1cnnc1CC1(c2cccc(N3Cc4c(cc(CN5CC[C@H](F)C5)cc4C(F)(F)F)C3=O)c2)COC1 | 1.31 | 5 | 1.51 | >=0.201 | >=1.001 | >=7.5 | 1 | 1 | 1 | 1 | 1 | fold change (FC) [26]: 1; IC50 [27]: < 0.1 µM; fold change (FC) [5]: >=1.001; fold change (FC) [8]: 1.51; fold change (FC) [9]: >=0.201; fold change (FC) [12]: >=7.5; fold change (FC) [32]: 1
> 10 | > 10 | COc1ccc(C(=O)Nc2cccc(C(C)Sc3nncn3C)c2)cc1 (stereo not given) |  |  |  |  |  |  |  |  |  |  |  | 
≥ 3 | ≥ 3 | Cc1nc2cc(C(C)Sc3nncn3C)cc(N)c2o1 (stereo not given) |  |  |  |  |  |  |  |  |  |  |  | 
> 10 | > 10 | CC(Sc1nncn1C)c1cccc(NC(=O)c2ccc3ccncc3c2)c1 (stereo not given) |  |  |  |  |  |  |  |  |  |  |  | 
